Measurements: the NIST ThermoML archive (doi:10.1016/j.tca.2012.05.025)
± gives the expanded uncertainty stated by the source.

Experiment: xn = mol fraction of the nth substance listed
Settings: for surface tension liquid-gas: roughened platinum plate-detachment; for viscosity / mass density: 101 kPa, Liquid; for viscosity: Capillary tube (Ostwald / Ubbelohde) method; for mass density: Vibrating tube method

CN(C)CCCO [3-dimethylamino-1-propanol] + O
Settings	mass density [kg/m3]	surface tension liquid-gas [mN/m]	viscosity [mPa·s]
298.15 K, x1 = 0.0979	–	36.93 ± 2	–
298.15 K, x1 = 0.1002	978.93 ± 0.11	–	6.617 ± 0.14
298.15 K, x1 = 0.1971	–	35.21 ± 2	–
298.15 K, x1 = 0.201	960.36 ± 0.12	–	14 ± 0.3
298.15 K, x1 = 0.2927	–	33.39 ± 2	–
298.15 K, x1 = 0.297	943.21 ± 0.14	–	19.6 ± 0.4
298.15 K, x1 = 0.3979	–	32.02 ± 2	–
298.15 K, x1 = 0.4001	929.16 ± 0.14	–	20.8 ± 0.4
298.15 K, x1 = 0.4996	–	31.04 ± 2	–
298.15 K, x1 = 0.5013	917.07 ± 0.16	–	19.5 ± 0.4
298.15 K, x1 = 0.5975	–	30.56 ± 2	–
298.15 K, x1 = 0.6019	907.19 ± 0.16	–	15.1 ± 0.3
298.15 K, x1 = 0.6939	899.28 ± 0.18	–	12.3 ± 0.3
298.15 K, x1 = 0.6998	–	29.87 ± 2	–
298.15 K, x1 = 0.7946	–	29.33 ± 2	–
298.15 K, x1 = 0.8006	891.51 ± 0.19	–	9.402 ± 0.2
298.15 K, x1 = 0.8989	885.51 ± 0.21	–	7.474 ± 0.16
298.15 K, x1 = 0.8997	–	28.22 ± 2	–
298.15 K, x1 = 1	880.25 ± 0.24	29.01 ± 2	5.839 ± 0.12
303.15 K, x1 = 0.0979	–	34.56 ± 2	–
303.15 K, x1 = 0.1002	975.53 ± 0.11	–	5.319 ± 0.11
303.15 K, x1 = 0.1971	–	34.17 ± 2	–
303.15 K, x1 = 0.201	956.53 ± 0.12	–	10.8 ± 0.2
303.15 K, x1 = 0.2927	–	31.4 ± 2	–
303.15 K, x1 = 0.297	939.37 ± 0.13	–	14.4 ± 0.3
303.15 K, x1 = 0.3979	–	31.61 ± 2	–
303.15 K, x1 = 0.4001	925.16 ± 0.14	–	15.9 ± 0.3
303.15 K, x1 = 0.4996	–	30.59 ± 2	–
303.15 K, x1 = 0.5013	913.1 ± 0.16	–	15.6 ± 0.3
303.15 K, x1 = 0.5975	–	29.91 ± 2	–
303.15 K, x1 = 0.6019	903.25 ± 0.16	–	11.9 ± 0.3
303.15 K, x1 = 0.6939	895.35 ± 0.18	–	9.94 ± 0.21
303.15 K, x1 = 0.6998	–	29.34 ± 2	–
303.15 K, x1 = 0.7946	–	28.87 ± 2	–
303.15 K, x1 = 0.8006	887.57 ± 0.19	–	7.954 ± 0.17
303.15 K, x1 = 0.8989	881.52 ± 0.21	–	6.226 ± 0.13
303.15 K, x1 = 0.8997	–	27.64 ± 2	–
303.15 K, x1 = 1	876.46 ± 0.24	29.28 ± 2	4.963 ± 0.11
308.15 K, x1 = 0.0979	–	32.51 ± 2	–
308.15 K, x1 = 0.1971	–	32.13 ± 2	–
308.15 K, x1 = 0.2927	–	30.61 ± 2	–
308.15 K, x1 = 0.3979	–	30.51 ± 2	–
308.15 K, x1 = 0.4996	–	30.2 ± 2	–
308.15 K, x1 = 0.5975	–	29.3 ± 2	–
308.15 K, x1 = 0.6998	–	28.72 ± 2	–
308.15 K, x1 = 0.7946	–	28.45 ± 2	–
308.15 K, x1 = 0.8997	–	26.42 ± 2	–
308.15 K, x1 = 1	–	28.88 ± 2	–
313.15 K, x1 = 0.0979	–	32.02 ± 2	–
313.15 K, x1 = 0.1002	968.53 ± 0.12	–	3.808 ± 0.079
313.15 K, x1 = 0.1971	–	31.26 ± 2	–
313.15 K, x1 = 0.201	948.48 ± 0.13	–	7.433 ± 0.15
313.15 K, x1 = 0.2927	–	29.79 ± 2	–
313.15 K, x1 = 0.297	931.17 ± 0.14	–	10.2 ± 0.2
313.15 K, x1 = 0.3979	–	30.12 ± 2	–
313.15 K, x1 = 0.4001	916.99 ± 0.15	–	11 ± 0.2
313.15 K, x1 = 0.4996	–	29.33 ± 2	–
313.15 K, x1 = 0.5013	905.01 ± 0.16	–	10.7 ± 0.2
313.15 K, x1 = 0.5975	–	28.76 ± 2	–
313.15 K, x1 = 0.6019	895.21 ± 0.17	–	8.899 ± 0.18
313.15 K, x1 = 0.6939	887.38 ± 0.18	–	7.649 ± 0.16
313.15 K, x1 = 0.6998	–	28.23 ± 2	–
313.15 K, x1 = 0.7946	–	27.82 ± 2	–
313.15 K, x1 = 0.8006	879.6 ± 0.2	–	6.319 ± 0.13
313.15 K, x1 = 0.8989	873.52 ± 0.21	–	5.192 ± 0.11
313.15 K, x1 = 0.8997	–	26.23 ± 2	–
313.15 K, x1 = 1	868.42 ± 0.24	28.47 ± 2	4.266 ± 0.091
318.15 K, x1 = 0.0979	–	30.72 ± 2	–
318.15 K, x1 = 0.1971	–	29.83 ± 2	–
318.15 K, x1 = 0.2927	–	28.55 ± 2	–
318.15 K, x1 = 0.3979	–	29.78 ± 2	–
318.15 K, x1 = 0.4996	–	28.69 ± 2	–
318.15 K, x1 = 0.5975	–	28.51 ± 2	–
318.15 K, x1 = 0.6998	–	27.87 ± 2	–
318.15 K, x1 = 0.7946	–	27.54 ± 2	–
318.15 K, x1 = 0.8997	–	25.6 ± 2	–
318.15 K, x1 = 1	–	28.13 ± 2	–
323.15 K, x1 = 0.0979	–	28.2 ± 2	–
323.15 K, x1 = 0.1002	961.28 ± 0.12	–	2.743 ± 0.057
323.15 K, x1 = 0.1971	–	29.54 ± 2	–
323.15 K, x1 = 0.201	940.25 ± 0.13	–	4.975 ± 0.1
323.15 K, x1 = 0.2927	–	28.28 ± 2	–
323.15 K, x1 = 0.297	922.77 ± 0.14	–	6.606 ± 0.14
323.15 K, x1 = 0.3979	–	28.91 ± 2	–
323.15 K, x1 = 0.4001	908.62 ± 0.15	–	7.162 ± 0.15
323.15 K, x1 = 0.4996	–	28.65 ± 2	–
323.15 K, x1 = 0.5013	896.72 ± 0.16	–	7.031 ± 0.15
323.15 K, x1 = 0.5975	–	27.57 ± 2	–
323.15 K, x1 = 0.6019	887.02 ± 0.17	–	6.036 ± 0.13
323.15 K, x1 = 0.6939	879.25 ± 0.18	–	5.28 ± 0.11
323.15 K, x1 = 0.6998	–	27.36 ± 2	–
323.15 K, x1 = 0.7946	–	27.1 ± 2	–
323.15 K, x1 = 0.8006	871.47 ± 0.2	–	4.526 ± 0.095
323.15 K, x1 = 0.8989	865.41 ± 0.22	–	3.848 ± 0.081
323.15 K, x1 = 0.8997	–	25.43 ± 2	–
323.15 K, x1 = 1	860.29 ± 0.24	27.63 ± 2	3.253 ± 0.069
333.15 K, x1 = 0.0979	–	26.75 ± 2	–
333.15 K, x1 = 0.1002	953.71 ± 0.12	–	2.169 ± 0.045
333.15 K, x1 = 0.1971	–	28.32 ± 2	–
333.15 K, x1 = 0.201	931.78 ± 0.13	–	3.514 ± 0.073
333.15 K, x1 = 0.2927	–	27.56 ± 2	–
333.15 K, x1 = 0.297	914.15 ± 0.14	–	4.536 ± 0.094
333.15 K, x1 = 0.3979	–	27.91 ± 2	–
333.15 K, x1 = 0.4001	900.04 ± 0.15	–	4.707 ± 0.098
333.15 K, x1 = 0.4996	–	27.54 ± 2	–
333.15 K, x1 = 0.5013	888.25 ± 0.16	–	4.797 ± 0.1
333.15 K, x1 = 0.5975	–	26.74 ± 2	–
333.15 K, x1 = 0.6019	878.64 ± 0.17	–	4.286 ± 0.089
333.15 K, x1 = 0.6939	870.93 ± 0.18	–	3.831 ± 0.08
333.15 K, x1 = 0.6998	–	26.36 ± 2	–
333.15 K, x1 = 0.7946	–	26.32 ± 2	–
333.15 K, x1 = 0.8006	863.22 ± 0.2	–	3.369 ± 0.071
333.15 K, x1 = 0.8989	857.19 ± 0.22	–	2.94 ± 0.062
333.15 K, x1 = 0.8997	–	24.76 ± 2	–
333.15 K, x1 = 1	852.1 ± 0.24	26.81 ± 2	2.768 ± 0.059
343.15 K, x1 = 0.1002	945.85 ± 0.12	–	1.686 ± 0.035
343.15 K, x1 = 0.201	923.1 ± 0.13	–	2.575 ± 0.053
343.15 K, x1 = 0.297	905.31 ± 0.14	–	3.262 ± 0.068
343.15 K, x1 = 0.4001	891.27 ± 0.15	–	3.498 ± 0.073
343.15 K, x1 = 0.5013	879.56 ± 0.16	–	3.428 ± 0.071
343.15 K, x1 = 0.6019	870.06 ± 0.17	–	3.147 ± 0.066
343.15 K, x1 = 0.6939	862.44 ± 0.18	–	2.861 ± 0.06
343.15 K, x1 = 0.8006	854.81 ± 0.2	–	2.579 ± 0.054
343.15 K, x1 = 0.8989	848.84 ± 0.22	–	2.322 ± 0.049
343.15 K, x1 = 1	843.77 ± 0.24	–	2.03 ± 0.043
